Source: the Kinase Knowledgebase extract (Sharma et al. 2016)

Molecular target: PIK3CG (human) (UniProt P48736)
Test: Assessment of PIK3CG Kinase Activity

PIK3CG (human), sequence (P48736 whole entry, looked up): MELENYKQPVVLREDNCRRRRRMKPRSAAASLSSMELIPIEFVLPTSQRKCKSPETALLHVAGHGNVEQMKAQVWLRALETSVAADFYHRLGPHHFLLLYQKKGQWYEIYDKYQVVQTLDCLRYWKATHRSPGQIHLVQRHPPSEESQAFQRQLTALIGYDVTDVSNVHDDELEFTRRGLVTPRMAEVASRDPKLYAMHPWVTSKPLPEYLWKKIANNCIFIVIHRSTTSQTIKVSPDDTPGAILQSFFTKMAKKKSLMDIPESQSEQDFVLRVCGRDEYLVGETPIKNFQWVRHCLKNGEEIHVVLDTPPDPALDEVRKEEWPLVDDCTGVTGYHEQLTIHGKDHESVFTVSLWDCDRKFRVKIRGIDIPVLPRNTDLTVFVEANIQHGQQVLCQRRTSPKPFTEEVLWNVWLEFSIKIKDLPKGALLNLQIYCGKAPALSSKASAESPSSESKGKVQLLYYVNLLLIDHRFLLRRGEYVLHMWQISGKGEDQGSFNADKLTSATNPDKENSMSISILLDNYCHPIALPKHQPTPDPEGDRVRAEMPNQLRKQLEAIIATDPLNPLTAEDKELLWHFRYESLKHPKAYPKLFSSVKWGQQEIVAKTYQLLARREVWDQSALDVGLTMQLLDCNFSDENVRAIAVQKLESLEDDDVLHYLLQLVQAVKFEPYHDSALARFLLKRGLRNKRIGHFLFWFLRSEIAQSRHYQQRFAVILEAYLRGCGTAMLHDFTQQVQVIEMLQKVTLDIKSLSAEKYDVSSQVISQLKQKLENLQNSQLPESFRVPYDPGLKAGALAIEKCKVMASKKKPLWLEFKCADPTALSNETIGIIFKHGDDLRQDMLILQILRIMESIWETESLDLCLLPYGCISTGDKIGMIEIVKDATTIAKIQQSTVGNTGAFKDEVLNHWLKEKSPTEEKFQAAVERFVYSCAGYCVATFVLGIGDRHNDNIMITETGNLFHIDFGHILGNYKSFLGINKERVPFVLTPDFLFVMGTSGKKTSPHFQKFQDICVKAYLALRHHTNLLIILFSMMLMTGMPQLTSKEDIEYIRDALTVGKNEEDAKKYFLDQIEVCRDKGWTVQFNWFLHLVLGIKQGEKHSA

IC50 [nM] | Compound
< 600 | CC(=O)Nc1nc2c(s1)-c1nc(-c3cc(C#CC4(O)CCN(C(C)C)CC4)ccc3F)ncc1CC2
< 600 | CC(=O)Nc1nc2c(s1)-c1nc(-c3cc(C#CCN4CCCC4)ccc3Cl)ncc1CC2
< 600 | CNC(=O)NC1(C#Cc2ccc(Cl)c(-c3ncc4c(n3)-c3sc(NC(C)=O)nc3CC4)c2)CCCCC1
< 600 | CCNC1(C#Cc2ccc(Cl)c(-c3ncc4c(n3)-c3sc(NC(C)=O)nc3CC4)c2)CCCCC1
< 600 | CC(=O)Nc1nc2c(s1)-c1nc(-c3cc(Cl)cc(C#CCNC(=O)CC(C)(C)C)c3)ncc1CC2
< 600 | CC(=O)Nc1nc2c(s1)-c1nc(-c3cc(C#CC4CCN(C(=O)NCC5CCCCC5)CC4)ccc3Cl)ncc1CC2
< 600 | CC(=O)Nc1nc2c(s1)-c1nc(-c3cc(C#CCNC(=O)N(C)C)ccc3Cl)ncc1CC2
< 600 | COC1(C#Cc2ccc(Cl)c(-c3ncc4c(n3)-c3sc(NC(C)=O)nc3CC4)c2)CCN(C)CC1
< 600 | CC(=O)Nc1nc2c(s1)-c1nc(-c3cc(C#CCCNCC4CCCC4)ccc3Cl)ncc1CC2
< 600 | CC(=O)Nc1nc2c(s1)-c1nc(-c3cc(C#CCNCCN4CCCC4)ccc3Cl)ncc1CC2
< 600 | CC(=O)Nc1nc2c(s1)-c1nc(-c3cc(C#CCNC(=O)CC(C)(C)C)ccc3Cl)ncc1CC2
< 600 | CC(=O)Nc1nc2c(s1)-c1nc(-c3cc(C#CCNC(=O)CCC4CCCC4)ccc3Cl)ncc1CC2
< 600 | CC(=O)Nc1nc2c(s1)-c1nc(-c3cc(C#CCn4ccnc4)ccc3Cl)ncc1CC2
< 600 | CC(=O)Nc1nc2c(s1)-c1nc(-c3cc(C#CC4CCN(C(C)=O)CC4)ccc3Cl)ncc1CC2
< 600 | CC(=O)Nc1nc2c(s1)-c1nc(-c3cc(C#CCN(C)S(C)(=O)=O)ccc3Cl)ncc1CC2
< 600 | CC(=O)Nc1nc2c(s1)-c1nc(-c3cc(C#CC4CCN(C5CCCC5)CC4)ccc3F)ncc1CC2
< 600 | CC(=O)Nc1nc2c(s1)-c1nc(-c3cc(C#CC4CCCCC4)ccc3Cl)ncc1CC2
< 600 | CC(=O)Nc1nc2c(s1)-c1nc(-c3cc(C#CCN(C)S(=O)(=O)N4CCOCC4)ccc3Cl)ncc1CC2
< 600 | CC(=O)Nc1nc2c(s1)-c1nc(-c3cc(C#CC4CCN(C(=O)N5CCOCC5)CC4)ccc3Cl)ncc1CC2
< 600 | CC(=O)Nc1nc2c(s1)-c1nc(-c3cc(C#CCNS(=O)(=O)N4CCOCC4)ccc3Cl)ncc1CC2
< 600 | CC(=O)Nc1nc2c(s1)-c1nc(-c3cc(C#CCNC(=O)CC(C)C)ccc3Cl)ncc1CC2
< 600 | CC(=O)Nc1nc2c(s1)-c1nc(-c3cc(C#C[C@@H]4CCCN4)ccc3Cl)ncc1CC2

IC50 [nM] | Compound
< 600 | CC(=O)Nc1nc2c(s1)-c1nc(-c3cc(C#CCNS(C)(=O)=O)ccc3Cl)ncc1CC2
< 600 | CC(=O)Nc1nc2c(s1)-c1nc(-c3cc(C#CC4CCN(C(C)C)CC4)ccc3Cl)ncc1CC2
< 600 | CC(=O)Nc1nc2c(s1)-c1nc(-c3cc(C#CCCCNC4CCCC4)ccc3Cl)ncc1CC2
< 600 | CC(=O)Nc1nc2c(s1)-c1nc(-c3cc(C#CCNS(N)(=O)=O)ccc3Cl)ncc1CC2
< 600 | CC(=O)Nc1nc2c(s1)-c1nc(-c3cc(C#CCNS(=O)(=O)C(C)C)ccc3Cl)ncc1CC2
< 600 | CC(=O)Nc1nc2c(s1)-c1nc(-c3cc(Cl)cc(C#CC4(N)CCCCC4)c3)ncc1CC2
< 600 | COC1(C#Cc2ccc(F)c(-c3ncc4c(n3)-c3sc(NC(C)=O)nc3CC4)c2)CCN(C)CC1
< 600 | CC(=O)Nc1nc2c(s1)-c1nc(-c3cc(C#CCN4CCN(C(C)C)CC4)ccc3Cl)ncc1CC2
< 600 | CC(=O)Nc1nc2c(s1)-c1nc(-c3cc(C#CCNC(=O)C4CCCC4)ccc3Cl)ncc1CC2
< 600 | CC(=O)Nc1nc2c(s1)-c1nc(-c3cc(C#CCCN4CCCC4)ccc3Cl)ncc1CC2
< 600 | COC1(C#Cc2ccc(Cl)c(-c3ncc4c(n3)-c3sc(NC(C)=O)nc3CC4)c2)CCCCC1
< 600 | CC(=O)Nc1nc2c(s1)-c1nc(-c3cc(C#CCNC(=O)CC4CCN(C)CC4)ccc3Cl)ncc1CC2
< 600 | CC(=O)Nc1nc2c(s1)-c1nc(-c3cc(C#CC4CCN(S(=O)(=O)C5CC5)CC4)ccc3Cl)ncc1CC2
< 600 | CC(=O)Nc1nc2c(s1)-c1nc(-c3cc(C#CCCN4CCOCC4)ccc3Cl)ncc1CC2
< 600 | CC(=O)Nc1nc2c(s1)-c1nc(-c3cc(C#C[C@H]4CCCN4)ccc3Cl)ncc1CC2
< 600 | CC(=O)Nc1nc2c(s1)-c1nc(-c3cccc(C#CCNC(=O)C4CCN(C)CC4)c3)ncc1CC2
< 600 | CC(=O)Nc1nc2c(s1)-c1nc(-c3cc(C#Cc4ccccn4)ccc3Cl)ncc1CC2
< 600 | CC(=O)Nc1nc2c(s1)-c1nc(-c3cc(C#CCNS(=O)(=O)N4CCCC4)ccc3Cl)ncc1CC2
< 600 | CNC(=O)Nc1nc2c(s1)-c1nc(-c3cc(C#CC4(O)CCN(C5CCCC5)CC4)ccc3Cl)ncc1CC2
< 600 | CNC(=O)N(C)CCC#Cc1ccc(Cl)c(-c2ncc3c(n2)-c2sc(NC(C)=O)nc2CC3)c1
< 600 | CC(=O)Nc1nc2c(s1)-c1nc(-c3cc(C#CC4CCN(C5CCCC5)CC4)ccc3Cl)ncc1CC2
< 600 | CNC(=O)Nc1nc2c(s1)-c1nc(-c3cc(C#CC4CCN(C5CCCC5)CC4)ccc3Cl)ncc1CC2

IC50 [nM] | Compound
< 600 | CC(=O)Nc1nc2c(s1)-c1nc(-c3cc(C#CCN(C)C(C)=O)ccc3Cl)ncc1CC2
< 600 | CC(=O)Nc1nc2c(s1)-c1nc(-c3cc(C#CCNC4CCN(C)CC4)ccc3Cl)ncc1CC2
< 600 | CC(=O)Nc1nc2c(s1)-c1nc(-c3cc(C#CCN(C)S(=O)(=O)N4CCCC4)ccc3Cl)ncc1CC2
< 600 | CC(=O)Nc1nc2c(s1)-c1nc(-c3cc(C#CCNS(=O)(=O)CC(F)(F)F)ccc3Cl)ncc1CC2
< 600 | CC(=O)Nc1nc2c(s1)-c1nc(-c3cc(C#CCCCN4CCN(C)CC4)ccc3Cl)ncc1CC2
< 600 | CC(=O)Nc1nc2c(s1)-c1nc(-c3cc(C#CCN(C)C(C)C)ccc3Cl)ncc1CC2
< 600 | CC(=O)NCC#Cc1cccc(-c2ncc3c(n2)-c2sc(NC(C)=O)nc2CC3)c1
< 600 | CC(=O)Nc1nc2c(s1)-c1nc(-c3cc(C#CCNS(=O)(=O)N(C)C)ccc3Cl)ncc1CC2
< 600 | CCN(CC)S(=O)(=O)NCC#Cc1ccc(Cl)c(-c2ncc3c(n2)-c2sc(NC(C)=O)nc2CC3)c1
< 600 | CC(=O)Nc1nc2c(s1)-c1nc(-c3cc(C#CCN4CCNC(=O)C4)ccc3Cl)ncc1CC2
< 600 | CC(=O)Nc1nc2c(s1)-c1nc(-c3cc(C#CCNC(=O)CCC(C)C)ccc3Cl)ncc1CC2
< 600 | CC(=O)Nc1nc2c(s1)-c1nc(-c3cccc(C#CCNS(=O)(=O)N(C)C)c3)ncc1CC2
< 600 | CC(=O)Nc1nc2c(s1)-c1nc(-c3cc(C#CCN4CCN(C)C(=O)C4)ccc3Cl)ncc1CC2
< 600 | CC(=O)Nc1nc2c(s1)-c1nc(-c3cc(C#CCNC4CCCC4)ccc3Cl)ncc1CC2
< 600 | CC(=O)Nc1nc2c(s1)-c1nc(-c3cc(C#Cc4cncn4C)ccc3Cl)ncc1CC2
< 600 | CC(=O)Nc1nc2c(s1)-c1nc(-c3cc(C#CCOC4CCN(C(C)=O)CC4)ccc3Cl)ncc1CC2
< 600 | CC(=O)Nc1nc2c(s1)-c1nc(-c3cc(C#CCNS(=O)(=O)c4ccoc4)ccc3Cl)ncc1CC2
< 600 | CCNC(=O)NCC#Cc1ccc(Cl)c(-c2ncc3c(n2)-c2sc(NC(C)=O)nc2CC3)c1
< 600 | CCS(=O)(=O)N(C)CC#Cc1ccc(Cl)c(-c2ncc3c(n2)-c2sc(NC(C)=O)nc2CC3)c1
< 600 | CC(=O)Nc1nc2c(s1)-c1nc(-c3cc(C#CCN(C)S(=O)(=O)N(C)C)ccc3Cl)ncc1CC2
< 600 | CC(=O)Nc1nc2c(s1)-c1nc(-c3cc(Cl)cc(C#CC4CCN(C5CCCC5)CC4)c3)ncc1CC2
< 600 | CC(=O)Nc1nc2c(s1)-c1nc(-c3cccc(C#CC4CCN(C(C)C)CC4)c3)ncc1CC2

IC50 [nM] | Compound
< 600 | CC(=O)Nc1nc2c(s1)-c1nc(-c3cc(C#CCCCN(C)C)ccc3Cl)ncc1CC2
< 600 | CC(=O)Nc1nc2c(s1)-c1nc(-c3cc(C#CC4CCN(S(=O)(=O)N(C)C)CC4)ccc3Cl)ncc1CC2
< 600 | CC(=O)Nc1nc2c(s1)-c1nc(-c3cc(C#CCNC(=O)NCC4CCCCC4)ccc3Cl)ncc1CC2
< 600 | CC(=O)Nc1nc2c(s1)-c1nc(-c3cc(C#CCN4CCC(N(C)C)CC4)ccc3Cl)ncc1CC2
< 600 | CC(=O)Nc1nc2c(s1)-c1nc(-c3cc(C#CC4(NC(C)C)CCCCC4)ccc3Cl)ncc1CC2
< 600 | CC(=O)Nc1nc2c(s1)-c1nc(-c3cc(C#CCCN4CCN(C)CC4)ccc3Cl)ncc1CC2
< 600 | CC(=O)Nc1nc2c(s1)-c1nc(-c3cc(C#CCNS(=O)(=O)C(F)(F)F)ccc3Cl)ncc1CC2
< 600 | CC(=O)Nc1nc2c(s1)-c1nc(-c3cc(C#CC4(O)CCN(C5CCCC5)CC4)ccc3F)ncc1CC2
< 600 | COC1(C#Cc2ccc(F)c(-c3ncc4c(n3)-c3sc(NC(C)=O)nc3CC4)c2)CCN(C2CCCC2)CC1
< 600 | CC(=O)Nc1nc2c(s1)-c1nc(-c3cc(C#CC4CCN(S(=O)(=O)C(C)C)CC4)ccc3Cl)ncc1CC2
< 600 | CC(=O)Nc1nc2c(s1)-c1nc(-c3cc(C#CCCO)ccc3Cl)ncc1CC2
< 600 | CC(=O)Nc1nc2c(s1)-c1nc(-c3cc(C#CC4CCN(C(=O)CC5CCCC5)CC4)ccc3Cl)ncc1CC2
< 600 | CC(=O)Nc1nc2c(s1)-c1nc(-c3cc(C#CC4CCN(C(=O)NC5CCCC5)CC4)ccc3Cl)ncc1CC2
< 600 | CNC1(C#Cc2ccc(Cl)c(-c3ncc4c(n3)-c3sc(NC(C)=O)nc3CC4)c2)CCCCC1
< 600 | CC(=O)Nc1nc2c(s1)-c1nc(-c3cc(C#CC4(O)CCC(C)(C)CC4)ccc3Cl)ncc1CC2
< 600 | CC(=O)Nc1nc2c(s1)-c1nc(-c3cc(C#CCN4CCN(C5CCCC5)CC4)ccc3Cl)ncc1CC2
< 600 | CNCC#Cc1cccc(-c2ncc3c(n2)-c2sc(NC(C)=O)nc2CC3)c1
< 600 | CC(=O)Nc1nc2c(s1)-c1nc(-c3cc(C#CCCCNC(C)C)ccc3Cl)ncc1CC2
< 600 | CC(=O)Nc1nc2c(s1)-c1nc(-c3cc(C#CC4(O)CCCCC4)ccc3Cl)ncc1CC2
< 600 | CNCC#Cc1ccc(Cl)c(-c2ncc3c(n2)-c2sc(NC(C)=O)nc2CC3)c1
< 600 | CC(=O)Nc1nc2c(s1)-c1nc(-c3cc(C#CCNC(=O)NC4CCCC4)ccc3Cl)ncc1CC2
